Measurements: patent US10670605B2, “Cysteine reactive probes and uses thereof” (The Scripps Research Institute, priority 2015, dated 2020)

Assays:
Test in all cases: Competitive isoTOP-ABPP in situ (fragment-treated cells)
Assay type in all cases: cell-based
[1] = target: T1, cysteines in MDA-MB-231 and Ramos cells (Homo sapiens, UniProt Q5T0N5)
T1 sequence (Q5T0N5 1-605): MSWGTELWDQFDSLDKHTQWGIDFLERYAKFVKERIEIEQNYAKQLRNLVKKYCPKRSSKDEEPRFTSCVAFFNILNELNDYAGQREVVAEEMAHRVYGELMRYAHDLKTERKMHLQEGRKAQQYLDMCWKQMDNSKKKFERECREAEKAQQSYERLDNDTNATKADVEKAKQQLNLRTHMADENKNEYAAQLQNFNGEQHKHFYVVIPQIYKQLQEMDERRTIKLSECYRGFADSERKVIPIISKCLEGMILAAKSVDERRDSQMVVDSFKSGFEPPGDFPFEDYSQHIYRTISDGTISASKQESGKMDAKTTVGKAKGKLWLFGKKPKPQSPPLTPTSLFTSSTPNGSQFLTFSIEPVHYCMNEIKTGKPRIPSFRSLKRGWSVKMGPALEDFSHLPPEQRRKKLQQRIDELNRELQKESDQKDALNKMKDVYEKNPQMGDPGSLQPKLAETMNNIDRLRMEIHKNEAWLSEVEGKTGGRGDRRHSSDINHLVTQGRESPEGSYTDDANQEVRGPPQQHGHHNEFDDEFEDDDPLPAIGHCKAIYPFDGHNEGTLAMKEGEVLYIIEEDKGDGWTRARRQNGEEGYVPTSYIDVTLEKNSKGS

[2] = target: T2, cysteines in MDA-MB-231 and Ramos cells (Homo sapiens, UniProt P21980)
T2 sequence (P21980 1-687): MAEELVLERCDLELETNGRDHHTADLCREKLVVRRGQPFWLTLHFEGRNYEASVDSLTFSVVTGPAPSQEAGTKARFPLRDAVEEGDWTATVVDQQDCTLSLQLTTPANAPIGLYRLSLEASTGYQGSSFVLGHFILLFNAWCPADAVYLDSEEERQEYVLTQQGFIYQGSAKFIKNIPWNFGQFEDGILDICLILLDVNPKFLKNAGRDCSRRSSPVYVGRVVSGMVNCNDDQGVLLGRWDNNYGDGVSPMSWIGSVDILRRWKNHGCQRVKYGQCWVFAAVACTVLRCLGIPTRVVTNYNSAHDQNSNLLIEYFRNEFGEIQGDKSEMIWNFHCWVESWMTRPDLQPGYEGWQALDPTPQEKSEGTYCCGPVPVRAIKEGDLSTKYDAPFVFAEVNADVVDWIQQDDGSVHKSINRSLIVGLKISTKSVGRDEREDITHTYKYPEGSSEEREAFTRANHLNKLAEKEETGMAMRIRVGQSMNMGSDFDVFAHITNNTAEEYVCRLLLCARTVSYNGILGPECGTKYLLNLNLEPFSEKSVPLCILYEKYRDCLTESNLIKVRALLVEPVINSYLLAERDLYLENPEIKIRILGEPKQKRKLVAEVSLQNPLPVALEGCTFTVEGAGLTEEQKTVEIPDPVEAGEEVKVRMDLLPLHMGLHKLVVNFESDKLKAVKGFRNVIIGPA

[3] = target: cysteines in MDA-MB-231 and Ramos cells (Homo sapiens, UniProt Q9NUY8)
[4] = target: T3, cysteines in MDA-MB-231 and Ramos cells (Homo sapiens, UniProt P35611)
T3 sequence (P35611 1-737): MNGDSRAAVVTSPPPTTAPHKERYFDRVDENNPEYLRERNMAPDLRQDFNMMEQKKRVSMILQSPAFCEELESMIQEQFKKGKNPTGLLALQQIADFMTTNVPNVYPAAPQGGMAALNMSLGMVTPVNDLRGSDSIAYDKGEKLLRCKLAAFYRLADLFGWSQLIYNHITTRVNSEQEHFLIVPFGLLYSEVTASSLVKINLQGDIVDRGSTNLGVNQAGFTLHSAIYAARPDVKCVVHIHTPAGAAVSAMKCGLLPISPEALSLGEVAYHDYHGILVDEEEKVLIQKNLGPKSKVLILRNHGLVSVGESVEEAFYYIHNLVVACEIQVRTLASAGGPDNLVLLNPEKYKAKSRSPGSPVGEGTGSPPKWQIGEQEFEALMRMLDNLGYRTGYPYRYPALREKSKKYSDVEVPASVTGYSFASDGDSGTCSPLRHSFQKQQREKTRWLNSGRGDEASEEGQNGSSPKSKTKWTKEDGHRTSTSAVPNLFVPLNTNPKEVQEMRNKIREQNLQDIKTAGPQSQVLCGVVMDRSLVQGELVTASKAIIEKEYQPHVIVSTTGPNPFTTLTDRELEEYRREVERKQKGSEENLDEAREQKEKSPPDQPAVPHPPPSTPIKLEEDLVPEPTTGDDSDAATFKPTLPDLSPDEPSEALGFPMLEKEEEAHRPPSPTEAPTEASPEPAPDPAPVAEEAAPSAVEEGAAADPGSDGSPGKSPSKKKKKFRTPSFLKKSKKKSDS

[5] = target: cysteines in MDA-MB-231 and Ramos cells (Homo sapiens, UniProt Q9BUH6)
[6] = target: T4, cysteines in MDA-MB-231 and Ramos cells (Homo sapiens, UniProt P78417)
T4 sequence (P78417 1-241): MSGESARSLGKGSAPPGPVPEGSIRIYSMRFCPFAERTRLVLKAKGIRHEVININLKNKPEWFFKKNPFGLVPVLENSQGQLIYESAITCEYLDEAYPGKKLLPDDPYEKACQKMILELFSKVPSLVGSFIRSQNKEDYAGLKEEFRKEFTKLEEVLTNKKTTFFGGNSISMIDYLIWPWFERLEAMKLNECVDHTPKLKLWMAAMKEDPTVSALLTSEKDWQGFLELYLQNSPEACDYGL

[7] = target: T5, cysteines in MDA-MB-231 and Ramos cells (Homo sapiens, UniProt Q9NS86)
T5 sequence (Q9NS86 1-450): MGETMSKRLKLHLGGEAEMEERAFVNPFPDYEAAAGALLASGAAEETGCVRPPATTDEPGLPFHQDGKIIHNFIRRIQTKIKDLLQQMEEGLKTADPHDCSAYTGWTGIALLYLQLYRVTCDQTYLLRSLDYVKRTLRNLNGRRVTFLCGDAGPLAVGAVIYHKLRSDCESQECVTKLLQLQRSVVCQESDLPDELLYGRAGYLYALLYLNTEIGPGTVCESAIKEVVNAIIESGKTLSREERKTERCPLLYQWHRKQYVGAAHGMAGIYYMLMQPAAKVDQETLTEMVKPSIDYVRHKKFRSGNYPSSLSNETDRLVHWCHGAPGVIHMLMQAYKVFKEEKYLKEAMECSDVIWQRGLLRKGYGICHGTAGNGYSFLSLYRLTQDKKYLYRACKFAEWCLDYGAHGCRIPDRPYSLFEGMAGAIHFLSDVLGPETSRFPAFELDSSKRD

cysteines in MDA-MB-231 and Ramos cells (Homo sapiens, UniProt Q9NUY8), sequence (Q9NUY8 whole entry): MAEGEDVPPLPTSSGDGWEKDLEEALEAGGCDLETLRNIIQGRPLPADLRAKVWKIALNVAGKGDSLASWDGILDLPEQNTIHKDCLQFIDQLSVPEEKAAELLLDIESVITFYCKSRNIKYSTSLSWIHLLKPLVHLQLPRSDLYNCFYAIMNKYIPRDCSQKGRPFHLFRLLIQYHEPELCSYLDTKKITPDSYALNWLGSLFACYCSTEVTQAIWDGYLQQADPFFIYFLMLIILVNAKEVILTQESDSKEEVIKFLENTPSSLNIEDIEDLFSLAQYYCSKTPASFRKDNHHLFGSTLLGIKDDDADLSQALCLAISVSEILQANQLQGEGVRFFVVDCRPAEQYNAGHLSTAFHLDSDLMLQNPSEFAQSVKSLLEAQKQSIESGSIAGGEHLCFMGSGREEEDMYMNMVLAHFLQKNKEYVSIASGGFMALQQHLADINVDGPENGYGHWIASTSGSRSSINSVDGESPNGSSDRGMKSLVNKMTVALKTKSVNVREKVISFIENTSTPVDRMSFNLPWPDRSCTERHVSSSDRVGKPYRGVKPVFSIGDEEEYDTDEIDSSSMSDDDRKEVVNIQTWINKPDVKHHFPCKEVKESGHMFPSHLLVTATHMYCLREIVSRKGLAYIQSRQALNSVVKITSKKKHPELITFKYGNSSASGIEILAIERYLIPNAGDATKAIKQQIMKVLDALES
cysteines in MDA-MB-231 and Ramos cells (Homo sapiens, UniProt Q9BUH6), sequence (Q9BUH6 whole entry): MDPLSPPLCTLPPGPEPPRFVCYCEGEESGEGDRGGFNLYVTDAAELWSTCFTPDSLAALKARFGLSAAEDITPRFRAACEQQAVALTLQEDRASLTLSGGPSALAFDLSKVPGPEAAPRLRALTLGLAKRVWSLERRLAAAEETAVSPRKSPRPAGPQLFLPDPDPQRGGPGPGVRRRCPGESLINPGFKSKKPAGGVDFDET

Row | SMILES | isoTOP-ABPP reactivity P21980_C277 TGM2 ([2]; 200 μM, insitu, 231) | isoTOP-ABPP reactivity Q9NUY8_C283 TBC1D23 ([3]; 200 μM, insitu, 231) | isoTOP-ABPP reactivity P35611_C68 ADD1 ([4]; 200 μM, insitu, 231) | isoTOP-ABPP ratio Q9BUH6_C180 ([5]; 200 μM, insitu, 231) | isoTOP-ABPP ratio P78417_C32 ([6]; 200 μM, insitu, 231) | isoTOP-ABPP ratio Q5T0N5_C69 ([1]; 200 μM, insitu, 231) | isoTOP-ABPP ratio P21980_C277 ([2]; 200 μM, insitu, 231) | isoTOP-ABPP ratio Q9NS86_C187 ([7]; 200 μM, insitu, 231) | isoTOP-ABPP ratio Q9NUY8_C283 ([3]; 200 μM, insitu, 231) | isoTOP-ABPP ratio P35611_C68 ([4]; 200 μM, insitu, 231) | further results
1 | COc1ccc(C2CC(c3cccs3)=NN2C(=O)CCl)cc1 (stereo not drawn) [compound 4] |  |  |  |  |  |  |  |  |  |  | isoTOP-ABPP reactivity Q9BUH6_C180 C9orf142 ([5]; 100 μM in situ 231): 1.2; isoTOP-ABPP reactivity P78417_C32 GSTO1 ([6]; 100 μM in situ 231): 19.9; isoTOP-ABPP reactivity Q5T0N5_C69 FNBP1L ([1]; 100 μM in situ 231): 20.0; isoTOP-ABPP reactivity P21980_C277 TGM2 ([2]; 100 μM in situ 231): 0.5; isoTOP-ABPP reactivity Q9NS86_C187 LANCL2 ([7]; 100 μM in situ 231): 1.6; isoTOP-ABPP reactivity Q9NUY8_C283 TBC1D23 ([3]; 100 μM in situ 231): 2.1; isoTOP-ABPP reactivity P35611_C68 ADD1 ([4]; 100 μM in situ 231): 4.3
2 | COc1cc2c(cc1OC)CN(C(=O)CCl)CC2 [compound 8] | 0.7 | 4.9 | 2.4 |  |  |  |  |  |  |  | isoTOP-ABPP reactivity Q9BUH6_C180 C9orf142 ([5]; 200 μM, insitu, 231): 6.6; isoTOP-ABPP reactivity P78417_C32 GSTO1 ([6]; 200 μM, insitu, 231): 20.0; isoTOP-ABPP reactivity Q5T0N5_C69 FNBP1L ([1]; 200 μM, insitu, 231): 3.6; isoTOP-ABPP reactivity Q9NS86_C187 LANCL2 ([7]; 200 μM, insitu, 231): 6.1
3 | Cn1cc(S(=O)(=O)N2CCOCC2)cc1C(=O)NC(=O)CCl [compound 11] |  |  |  |  |  |  |  |  |  |  | isoTOP-ABPP ratio Q5T0N5_C69 ([1]; 100 μM in situ 231): 1.3; isoTOP-ABPP ratio P21980_C277 ([2]; 100 μM in situ 231): 0.6; isoTOP-ABPP ratio Q9NS86_C187 ([7]; 100 μM in situ 231): 0.8; isoTOP-ABPP ratio Q9NUY8_C283 ([3]; 100 μM in situ 231): 1.1; isoTOP-ABPP ratio P35611_C68 ([4]; 100 μM in situ 231): 0.9
4 | O=C(CCl)NC(=O)NC12CC3CC(CC(C3)C1)C2 [compound 12] |  |  |  | 1.4 | 20.0 | 20.0 | 0.3 | 2.0 | 2.9 | 3.6 | 

More lines, main results first:

Row | isoTOP-ABPP reactivity P21980_C277 TGM2 ([2]; 200 μM, insitu, 231) | isoTOP-ABPP reactivity Q9NUY8_C283 TBC1D23 ([3]; 200 μM, insitu, 231) | isoTOP-ABPP reactivity P35611_C68 ADD1 ([4]; 200 μM, insitu, 231) | isoTOP-ABPP ratio Q9BUH6_C180 ([5]; 200 μM, insitu, 231) | isoTOP-ABPP ratio P78417_C32 ([6]; 200 μM, insitu, 231) | isoTOP-ABPP ratio Q5T0N5_C69 ([1]; 200 μM, insitu, 231) | isoTOP-ABPP ratio P21980_C277 ([2]; 200 μM, insitu, 231) | isoTOP-ABPP ratio Q9NS86_C187 ([7]; 200 μM, insitu, 231) | isoTOP-ABPP ratio Q9NUY8_C283 ([3]; 200 μM, insitu, 231) | isoTOP-ABPP ratio P35611_C68 ([4]; 200 μM, insitu, 231) | SMILES | further results
5 | 0.7 | 4.1 | 5.8 |  |  |  |  |  |  |  | COc1ccc2c(c1)CCCN2C(=O)CCl [compound 2] | isoTOP-ABPP reactivity Q5T0N5_C69 FNBP1L ([1]; 200 μM, insitu, 231): 20.0
6 | 2.3 | 2.1 | 4.3 |  |  |  |  |  |  |  | O=C(CCl)N1CCC(Cc2ccccc2)CC1 [compound 9] | isoTOP-ABPP reactivity Q9BUH6_C180 C9orf142 ([5]; 200 μM, insitu, 231): 2.8; isoTOP-ABPP reactivity Q9NS86_C187 LANCL2 ([7]; 200 μM, insitu, 231): 15
7 |  |  |  | 3.8 | 20.0 | 2.0 | 0.6 | 6.3 | 2.0 | 1.9 | O=C(CCl)N1CCN(S(=O)(=O)c2ccccc2F)CC1 [compound 10] | isoTOP-ABPP ratio P78417_C32 ([6]; 200 μM, insitu, ramos): 20.0
8 |  |  |  | 1.1 | 20.0 | 1.0 | 0.8 | 1.0 | 1.1 | 1.1 | O=C(CCl)NCCc1c[nH]c2ccccc12 [compound 13] | isoTOP-ABPP ratio P78417_C32 ([6]; 200 μM, insitu, ramos): 20.0; isoTOP-ABPP ratio Q9NS86_C187 ([7]; 200 μM, insitu, ramos): 1.1; isoTOP-ABPP ratio Q9NUY8_C283 ([3]; 200 μM, insitu, ramos): 1.1; isoTOP-ABPP ratio P35611_C68 ([4]; 200 μM, insitu, ramos): 1.0
